Laboratory results taken from patent US9901591B2, “Paeoniflorin preparations and uses thereof for fat reduction” (priority 2008, dated 2018).
Values joined by “and” are separate entries in the source; they are usually repeats but may differ in a detail not shown here. Equal values may be shown once.

How the values were obtained:
[1] = test system: 3T3-L1 adipocytes; experiment: Glycerol release from differentiated 3T3-L1 adipocytes (adipolysis); assay type: cell-based, mouse; details: 1 umol/L PF vs media without PF, 7th day
Text: The 3T3-L1 cell line is an accepted model by those of skill in the art for natural fat loss. This cell line is a substrain of Swiss 3T3 mouse cell line 3T3-L1. This cell line propagated under normal conditions has a fibroblastic phenotype. However, when treated with a combination of dexamethasone, isobutylmethylxanthine (a non-specific inhibitor of phosphodiesterases) (IBMX) and insulin, 3T3 cells adopt a rounded phenotype and accumulate lipids intracellularly in the form of fat droplets. Differentiated 3T3-L1 adipocytes were cultured in media containing 1 umol/L PF as test group, and media without PF as control. As a result of lipolysis activity, glycerol will be generated as a result of triglyceride breakdown and released into the extracellular space. Glycerol content from 3T3-L1 adipocyte cell culture media may therefore provide an indicator of adipolysis.

[2] = test system: Adra2b; experiment: Oligo GEArray microarray of obesity-related genes in 3T3-L1 adipocytes; assay type: cell-based, mouse; details: for Ratio of expression signals of Adra2b compared to control: 3T3-L1 adipocytes, 1 umol/L PF, control = 1
Procedure: (§1) 3T3-L1 adipocytes were cultured in medium containing 1 umol/L PF as test group and medium only as control. Total RNA was extracted and Oligo GEArray was tested using Superarray OMM-17. The GEArray includes 111 obesity-related genes that are directly involved in the regulation of energy intake and expenditure. The genes included orexigenic peptides, hormones, and receptors, anorectic peptides, hormones, receptors, and central and peripheral signaling molecules involved in energy expenditure. The increase changes or decrease changes of more than 1.5 fold are regarded meaningful according to the diagnosis discipline, as described in the insert literature of a metabolic disease/obesity gene panel product purchased from Superarray Bioscience Corporation. (Frederick, Md.). […] In the graphs, the data above the upper line and the data below the lower line show a significant change of gene expression.

[3] = test system: Adrb2; experiment: as above; assay type: cell-based, mouse; details: for Ratio of expression signals of Adrb2 compared to control: 1 umol/L PF, control = 1
Procedure: as §1

[4] = test system: Adrb3; experiment: as above; assay type: cell-based, mouse; details: for Ratio of expression signals of Adrb3 compared to control: 1 umol/L PF, control = 1
Procedure: as §1

[5] = test system: Peroxisome proliferators activated receptor gamma (Pparg); experiment: as above; assay type: cell-based, mouse; details: for Ratio of expression signals of Pparg compared to control: 1 umol/L PF, control = 1
Procedure: as §1

[6] = test system: β1-adrenergic receptor (Adrb1); experiment: as above; assay type: cell-based, mouse; details: for Ratio of expression signals of Adrb1 compared to control: 3T3-L1 adipocytes, 1 umol/L PF, control = 1
Procedure: as §1

[7] = Fat reduction with PF/azone creme and low current in patients; assay type: in vivo, human
Procedure: Concentration of PF included into the topical preparation: 0.2 mg to 0.3 mg of PF were dissolved in 1 ml of azone liquid.
A low current of […] is then passed through pads placed on the skin of the desired treatment area which then drives the PF through the skin into the adipose tissues, thus allowing the PF to come in contact with the fat cells.
The present preparations may be provided in the form of a creme containing 1 ml of PF at a concentration of 1 mmol mixed with 1 ml of azone which is then massaged into the target area. Azone has been extensively studied using a range of permeants. […] This process leads to increased lipid fluidity and enhanced drug diffusion. This is the reason PF was mixed with azone. Furthermore, a low current is then passed through the tissue area, which then drives the PF through the skin into the adipose tissues. PF may in this way come in contact with fat cells. The clinical results are show below and the details of each patient is documented.

[8] = per patient, number of times as in table

**Q.** With `C[C@@]12C[C@@]3(O)O[C@@H](O1)[C@]1(COC(=O)c4ccccc4)[C@H]3C[C@@]12O[C@@H]1O[C@H](CO)[C@@H](O)[C@H](O)[C@H]1O` [PF, paeoniflorin] as the molecule, how does the release of glycerol [1] read?
**A.** increased the release of glycerol significantly

**Q.** And the “effect on expression of Adra2b” value ([2]; 3T3-L1 adipocytes exposed to PF, whole study)?
**A.** no effect on Adra2b

**Q.** And the “Ratio of expression signals of Adra2b compared to control” value (“Ratio of expression signals of Adra2b” for short) ([2]; 3 days)?
**A.** 0.92

**Q.** And the “Ratio of expression signals of Adra2b” value ([2]; 6 days)?
**A.** 1.44

**Q.** And the “Ratio of expression signals of Adra2b” value ([2]; 7 days)?
**A.** 1.27

**Q.** And the “Ratio of expression signals of Adrb2 compared to control” value (from here on “Ratio of expression signals of Adrb2”) ([3]; 3 days)?
**A.** 0.74

**Q.** What about the “Ratio of expression signals of Adrb2” value ([3]; 6 days) of the same molecule?
**A.** 1.96

**Q.** What about the “Ratio of expression signals of Adrb2” value ([3]; 7 days) of the same molecule?
**A.** 7.40

**Q.** And the “increase of Adrb2 expression” value ([3]; 7 days post exposure to PF)?
**A.** 7.4 fold

**Q.** And the “Ratio of expression signals of Adrb3 compared to control” value (“Ratio of expression signals of Adrb3” for short) ([4]; 3 days)?
**A.** 1.56

**Q.** What about the “Ratio of expression signals of Adrb3” value ([4]; 6 days) of the same molecule?
**A.** 3.18

**Q.** And the “Ratio of expression signals of Adrb3” value ([4]; 7 days)?
**A.** 5.65

**Q.** What about the “increase of Adrb3 expression” value ([4]; 7 days post exposure to PF) of the same molecule?
**A.** 5.65 fold

**Q.** And the “Ratio of expression signals of Pparg compared to control” value (“Ratio of expression signals of Pparg” for short) ([5]; 3 days)?
**A.** 0.91

**Q.** And the “Ratio of expression signals of Pparg” value ([5]; 6 days)?
**A.** 1.09

**Q.** And the “Ratio of expression signals of Pparg” value ([5]; 7 days)?
**A.** 0.64

**Q.** What about the “reduction of the level of expression of Pparg” value ([5]; day 7 of exposure to PF) of the same molecule?
**A.** 1.54 fold

**Q.** And the “effect on expression of Adrb1” value ([6]; 3T3-L1 adipocytes exposed to PF)?
**A.** significant increase

**Q.** And the “Ratio of expression signals of Adrb1 compared to control” value (“Ratio of expression signals of Adrb1” for short) ([6]; 3 days)?
**A.** 3.39

**Q.** And the “Ratio of expression signals of Adrb1” value ([6]; 6 days)?
**A.** 0.8

**Q.** What about the “Ratio of expression signals of Adrb1” value ([6]; 7 days) of the same molecule?
**A.** 0.58

**Q.** What about the “AMOUNT OF REDUCTION IN CM, each side of the upper thigh” value ([7]; patient #3, 6 times) of the same molecule?
**A.** 2 cm from each side of the upper

**Q.** And the “AMOUNT OF REDUCTION IN CM, left buttock” value ([7]; patient #4, 7 times)?
**A.** 9 cm from the left buttock

**Q.** And the “AMOUNT OF REDUCTION IN CM, right buttock” value ([7]; patient #4, 7 times)?
**A.** 8 cm from the right buttock &

**Q.** And the “AMOUNT OF REDUCTION IN CM, each leg below the knees” value ([7]; patient #5, 8 times)?
**A.** 9 cm and 10 cm

**Q.** And the “AMOUNT OF REDUCTION IN CM, left thigh” value ([7]; patient #7, 9 times)?
**A.** 6 cm

**Q.** And the “AMOUNT OF REDUCTION IN CM, right thigh” value ([7]; patient #7, 9 times)?
**A.** 8 cm

**Q.** What about the “AMOUNT OF REDUCTION, bra size” value ([7]; patient #8, 30 times) of the same molecule?
**A.** 1.5 size in bra size

**Q.** What about the “AMOUNT OF REDUCTION IN CM, love handles” value ([7]; patient #12, 8 times) of the same molecule?
**A.** 10 cm from love handles and

**Q.** What about the “AMOUNT OF REDUCTION IN CM, above and below the umbilicus” value [7, 8] of the same molecule?
**A.** 3.5 cm above and below the

**Q.** What about the “AMOUNT OF REDUCTION IN CM, above the umbilicus” value [7, 8] of the same molecule?
**A.** 7 cm and 6 cm and 10 cm above the umbilicus, and 9 cm above the umbilicus. 9 cm

**Q.** What about the “AMOUNT OF REDUCTION IN CM, below the umbilicus” value [7, 8] of the same molecule?
**A.** 9 cm and 9.5 cm below the umbilicus and 6 cm below the umbilicus

**Q.** And the “AMOUNT OF REDUCTION IN CM, midsection” value [7, 8]?
**A.** 10 cm and 5 cm from the waist and 5 cm and 9 cm above the umbilicus. 9 cm
